For series [1] the following is noted: rat, in vivo, po.
Protocol: (§1) The dispersions prepared according to Example 1 and Example 2 were tested in in vivo rat study together with dispersions comprising crystalline particles (prepared by wet milling) of compound A and B, respectively. The dispersions were orally administered at 100 mmol/kg.
(§2) The open circles illustrate the results obtained upon administration of the dispersions comprising crystalline particles.
Series [2] can be described thus: in vivo rat study: plasma concentration after oral administration of amorphous versus wet-milled crystalline dispersions. As to conditions: 100 mmol/kg, maximum plasma concentration ratio of amorphous dispersion (Example 1 or 2) to wet-milled crystalline dispersion.
Protocol: as §1, §2

Molecules are shown by their SMILES.

The compound `O=C(NC1CCCCC1O)c1nn(-c2ccc(Cl)cc2Cl)c(-c2ccc(OS(=O)(=O)CCC(F)(F)F)cc2)c1CO` (centres unmarked) [Compound A, 1-propanesulfonic acid, 3,3,3-trifluoro-, 4-[1-(2,4-dichlorophenyl)-3-[[(2-hydroxycyclohexyl)amino]carbonyl]-4-(hydroxymethyl)-1H-pyrazol-5-yl]phenyl ester] yielded an AUCamorph/AUCcrystal in series [1] of 4.8.
With `O=C(NC1CCCCC1)c1nn(-c2ccc(Cl)cc2Cl)c(-c2ccc(OS(=O)(=O)CCC(F)(F)F)cc2)c1CO` [Compound B, 1-propanesulfonic acid, 3,3,3-trifluoro-, 4-[3-[(cyclohexylamino)carbonyl]-1-(2,4-dichlorophenyl)-4-(hydroxymethyl)-1H-pyrazol-5-yl]phenyl ester], the “c^maxamorph/c^maxcrystal” value in series [2] is reported as 10.

(Values after patent US20080214611A1, “Pharmaceutical Compositions - 659” (AstraZeneca AB, priority 2007, published 2008).)
